Measured values from patent publication US20080200454A1, “CARBON-LINKED TETRAHYDRO-PYRAZOLO-PYRIDINE MODULATORS OF CATHEPSIN S” (priority 2007, published 2008).
Like-named read-outs stand apart in the source and are kept apart here.

Target: Recombinant human cathepsin S (CatS) (Homo sapiens, UniProt P25774)
Experiment: Recombinant human cathepsin S (CatS) inhibition assay, fluorogenic substrate Z-Valine-Valine-Arginine-AMC;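 further: Baculovirus-expressed CatS in pH 5.0 sodium acetate buffer with DTT and NaCl, fluorescence read each minute over 20 min, inhibition derived from rate slope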
Method: Recombinant human cathepsin S (CatS) was expressed in the baculovirus system and purified in one step with a thiopropyl-sepharose column. 10-L yielded ˜700 mg of CatS and N-terminal sequencing confirmed identity. The assay is run in 150 mM sodium acetate pH 5.0 containing 1.5 mM DTT and 150 mM NaCl. […] Using 2 ng/well of CatS, the production of product is linear and yields-7-fold signal after 20 min with only 20% loss of substrate. Measurements are taken every min for 20 min. The rate is calculated from the slope of the increase in fluorescence and the percent inhibition is calculated from this.

Sequence of Recombinant human cathepsin S (CatS) (P25774 115-331): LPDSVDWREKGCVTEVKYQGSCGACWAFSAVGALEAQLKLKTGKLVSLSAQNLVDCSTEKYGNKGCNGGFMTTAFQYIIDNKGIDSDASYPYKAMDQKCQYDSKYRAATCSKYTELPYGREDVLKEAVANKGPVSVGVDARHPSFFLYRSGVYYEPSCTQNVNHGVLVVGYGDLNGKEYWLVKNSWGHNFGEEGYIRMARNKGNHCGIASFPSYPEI

| Compound | IC50 [nM] | IC50 (CatS IC50) [nM] |
| --- | --- | --- |
| CSc1ccc(CNCc2ccc(C#Cc3cc(-c4nn(CCCN5CCSCC5)c5c4CN(C(N)=O)CC5)ccc3Cl)cc2)cc1 [Example 550, 3-[4-Chloro-3-({4-[({[4-(methylsulfanyl)phenyl]methyl}amino)methyl]phenyl}ethynyl)phenyl]-1-(3-thiomorpholin-4-ylpropyl)-1,4,6,7-tetrahydro-5H-pyrazolo[4,3-c]pyridine-5-carboxamide] |  | 100 |
| NC(=O)N1CCc2c(c(-c3ccc(Cl)c(C#Cc4ccc(CNCc5ccc(N)cc5)cc4)c3)nn2CCCN2CCSCC2)C1 [Example 551, 3-(3-{[4-({[(4-Aminophenyl)methyl]amino}methyl)phenyl]ethynyl}-4-chlorophenyl)-1-(3-thiomorpholin-4-ylpropyl)-1,4,6,7-tetrahydro-5H-pyrazolo[4,3-c]pyridine-5-carboxamide] |  | 100 |
| NC(=O)N1CCc2c(c(-c3ccc(Cl)c(C#Cc4ccc(C(=O)N5CC[C@@H](O)C5)cc4)c3)nn2CCCN2CCSCC2)C1 [Example 552, 3-{4-Chloro-3-[(4-{[(3R)-3-hydroxypyrrolidin-1-yl]carbonyl}phenyl)ethynyl]phenyl}-1-(3-thiomorpholin-4-ylpropyl)-1,4,6,7-tetrahydro-5H-pyrazolo[4,3-c]pyridine-5-carboxamide] |  | 500 |
| NC(=O)C(=O)N1CCc2c(c(-c3ccc(Cl)c(C#Cc4ccc(Cl)c(C(=O)NCCCO)c4)c3)nn2CCCN2CCSCC2)C1 [Example 554, 5-[(5-{5-[Amino(oxo)acetyl]-1-(3-thiomorpholin-4-ylpropyl)-4,5,6,7-tetrahydro-1H-pyrazolo[4,3-c]pyridin-3-yl}-2-chlorophenyl)ethynyl]-2-chloro-N-(3-hydroxypropyl)benzamide] | 20 |  |
| C[C@H]1COCCN1CCCn1nc(-c2ccc(Cl)c(C#Cc3ccc(Cl)c(C(=O)NC[C@@H]4CCCN4)c3)c2)c2c1CCN(C(=O)C(N)=O)C2 [Example 556, 5-{[5-(5-[Amino(oxo)acetyl]-1-{3-[(3S)-3-methylmorpholin-4-yl]propyl}-4,5,6,7-tetrahydro-1H-pyrazolo[4,3-c]pyridin-3-yl)-2-chlorophenyl]ethynyl}-2-chloro-N-[(2S)-pyrrolidin-2-ylmethyl]benzamide] | 30 |  |
| C[C@H]1COCCN1CCCn1nc(-c2ccc(Cl)c(C#Cc3ccc(Cl)c(C(=O)NCCCO)c3)c2)c2c1CCN(C(=O)C(N)=O)C2 [Example 560, 5-{[5-(5-[Amino(oxo)acetyl]-1-{3-[(3S)-3-methylmorpholin-4-yl]propyl}-4,5,6,7-tetrahydro-1H-pyrazolo[4,3-c]pyridin-3-yl)-2-chlorophenyl]ethynyl}-2-chloro-N-(3-hydroxypropyl)benzamide] |  | 20 |
| C[C@H]1COCCN1CCCn1nc(-c2ccc(Cl)c(C#Cc3ccc(Cl)c(CNCC(C)(C)O)c3)c2)c2c1CCN(C(=O)C(N)=O)C2 [Example 561, 2-(3-{4-Chloro-3-[(4-chloro-3-{[(2-hydroxy-2-methylpropyl)amino]methyl}phenyl)ethynyl]phenyl}-1-{3-[(3S)-3-methylmorpholin-4-yl]propyl}-1,4,6,7-tetrahydro-5H-pyrazolo[4,3-c]pyridin-5-yl)-2-oxoacetamide] | 30 |  |
| CNCCCNC(=O)c1cc(C#Cc2cc(-c3nn(CCCN4CCSCC4)c4c3CN(C(=O)C(N)=O)CC4)ccc2Cl)ccc1Cl [Example 565, 5-[(5-{5-[Amino(oxo)acetyl]-1-(3-thiomorpholin-4-ylpropyl)-4,5,6,7-tetrahydro-1H-pyrazolo[4,3-c]pyridin-3-yl}-2-chlorophenyl)ethynyl]-2-chloro-N-[3-(methylamino)propyl]benzamide] |  | 20 |
| CCNCc1cc(C#Cc2cc(-c3nn(CCCN4CCOC[C@@H]4C)c4c3CN(C(=O)C(N)=O)CC4)ccc2Cl)ccc1Cl [Example 566, 2-(3-[4-Chloro-3-({4-chloro-3-[(ethylamino)methyl]phenyl}ethynyl)phenyl]-1-{3-[(3S)-3-methylmorpholin-4-yl]propyl}-1,4,6,7-tetrahydro-5H-pyrazolo[4,3-c]pyridin-5-yl)-2-oxoacetamide] | 20 |  |
| NC(=O)C(=O)N1CCc2c(c(-c3ccc(Cl)c(C#Cc4ccc(Cl)c(C(=O)N5CCCC5)c4)c3)nn2CCCN2CCSCC2)C1 [Example 567, 2-[3-(4-Chloro-3-{[4-chloro-3-(pyrrolidin-1-ylcarbonyl)phenyl]ethynyl}phenyl)-1-(3-thiomorpholin-4-ylpropyl)-1,4,6,7-tetrahydro-5H-pyrazolo[4,3-c]pyridin-5-yl]-2-oxoacetamide] |  | 160 |
| NC(=O)C(=O)N1CCc2c(c(-c3ccc(Cl)c(C#Cc4ccc(Cl)c(C(=O)N5CCNCC5)c4)c3)nn2CCCN2CCSCC2)C1 [Example 568, 2-[3-(4-Chloro-3-{[4-chloro-3-(piperazin-1-ylcarbonyl)phenyl]ethynyl}phenyl)-1-(3-thiomorpholin-4-ylpropyl)-1,4,6,7-tetrahydro-5H-pyrazolo[4,3-c]pyridin-5-yl]-2-oxoacetamide] |  | 140 |
| NC(=O)C(=O)N1CCc2c(c(-c3ccc(Cl)c(C#Cc4ccc(Cl)c(C(=O)N5CCCNCC5)c4)c3)nn2CCCN2CCSCC2)C1 [Example 569, 2-[3-(4-Chloro-3-{[4-chloro-3-(1,4-diazepan-1-ylcarbonyl)phenyl]ethynyl}phenyl)-1-(3-thiomorpholin-4-ylpropyl)-1,4,6,7-tetrahydro-5H-pyrazolo[4,3-c]pyridin-5-yl]-2-oxoacetamide] |  | 150 |
| NC(=O)N1CCc2c(c(-c3ccc(Cl)c(C#Cc4ccc(Cl)c(C(=O)N5CCCC5)c4)c3)nn2CCCN2CCSCC2)C1 [Example 570, 3-(4-Chloro-3-{[4-chloro-3-(pyrrolidin-1-ylcarbonyl)phenyl]ethynyl}phenyl)-1-(3-thiomorpholin-4-ylpropyl)-1,4,6,7-tetrahydro-5H-pyrazolo[4,3-c]pyridine-5-carboxamide] |  | 260 |
| NC(=O)N1CCc2c(c(-c3ccc(Cl)c(C#Cc4ccc(Cl)c(C(=O)N5CCCNCC5)c4)c3)nn2CCCN2CCSCC2)C1 [Example 572, 3-(4-Chloro-3-{[4-chloro-3-(1,4-diazepan-1-ylcarbonyl)phenyl]ethynyl}phenyl)-1-(3-thiomorpholin-4-ylpropyl)-1,4,6,7-tetrahydro-5H-pyrazolo[4,3-c]pyridine-5-carboxamide] |  | 170 |
| C[C@H]1COCCN1CCCn1nc(-c2ccc(Cl)c(C#Cc3ccc(Cl)c(C(=O)N4CCCC4)c3)c2)c2c1CCN(C(=O)C(N)=O)C2 [Example 573, 2-[3-(4-Chloro-3-{[4-chloro-3-(pyrrolidin-1-ylcarbonyl)phenyl]ethynyl}phenyl)-1-{3-[(3S)-3-methylmorpholin-4-yl]propyl}-1,4,6,7-tetrahydro-5H-pyrazolo[4,3-c]pyridin-5-yl]-2-oxoacetamide] |  | 190 |

The next lines start with results.

| IC50 [nM] | Compound | IC50 (CatS IC50) [nM] |
| --- | --- | --- |
| 450 | C[C@H]1COCCN1CCCn1nc(-c2ccc(Cl)c(C#Cc3ccc(Cl)c(CNCC(=O)O)c3)c2)c2c1CCNC2 [Example 553, N-[(2-Chloro-5-{[2-chloro-5-(1-{3-[(3S)-3-methylmorpholin-4-yl]propyl}-4,5,6,7-tetrahydro-1H-pyrazolo[4,3-c]pyridin-3-yl)phenyl]ethynyl}phenyl)methyl]glycine] |  |
| 20 | NC(=O)N1CCc2c(c(-c3ccc(Cl)c(C#Cc4ccc(Cl)c(C(=O)NCCCO)c4)c3)nn2CCCN2CCSCC2)C1 [Example 555, 3-[4-Chloro-3-({4-chloro-3-[(3-hydroxypropyl)carbamoyl]phenyl}ethynyl)phenyl]-1-(3-thiomorpholin-4-ylpropyl)-1,4,6,7-tetrahydro-5H-pyrazolo[4,3-c]pyridine-5-carboxamide] |  |
| 30 | NC(=O)C(=O)N1CCc2c(c(-c3ccc(Cl)c(C#Cc4ccc(Cl)c(C(=O)NC[C@@H]5CCCN5)c4)c3)nn2CCCN2CCSCC2)C1 [Example 557, 5-[(5-{5-[Amino(oxo)acetyl]-1-(3-thiomorpholin-4-ylpropyl)-4,5,6,7-tetrahydro-1H-pyrazolo[4,3-c]pyridin-3-yl}-2-chlorophenyl)ethynyl]-2-chloro-N-[(2S)-pyrrolidin-2-ylmethyl]benzamide] |  |
| 30 | NC(=O)N1CCc2c(c(-c3ccc(Cl)c(C#Cc4ccc(Cl)c(C(=O)NC[C@@H]5CCCN5)c4)c3)nn2CCCN2CCSCC2)C1 [Example 558, 3-{4-Chloro-3-[(4-chloro-3-{[(2S)-pyrrolidin-2-ylmethyl]carbamoyl}phenyl)ethynyl]phenyl}-1-(3-thiomorpholin-4-ylpropyl)-1,4,6,7-tetrahydro-5H-pyrazolo[4,3-c]pyridine-5-carboxamide] |  |
| 100 | C[C@H]1COCCN1CCCn1nc(-c2ccc(Cl)c(C#Cc3ccc(Cl)c(COC4CCN(C(=O)OC(C)(C)C)C4)c3)c2)c2c1CCN(C(=O)C(N)=O)C2 (stereo partly drawn) [Example 559, tert-Butyl 3-[(5-{[5-(5-[amino(oxo)acetyl]-1-{3-[(3S)-3-methylmorpholin-4-yl]propyl}-4,5,6,7-tetrahydro-1H-pyrazolo[4,3-c]pyridin-3-yl)-2-chlorophenyl]ethynyl}-2-chlorobenzyl)oxy]pyrrolidine-1-carboxylate] |  |
| 30 | CC(C)(O)CNCc1cc(C#Cc2cc(-c3nn(CCCN4CCSCC4)c4c3CN(C(=O)C(N)=O)CC4)ccc2Cl)ccc1Cl [Example 562, 2-[3-{4-Chloro-3-[(4-chloro-3-{[(2-hydroxy-2-methylpropyl)amino]methyl}phenyl)ethynyl]phenyl}-1-(3-thiomorpholin-4-ylpropyl)-1,4,6,7-tetrahydro-5H-pyrazolo[4,3-c]pyridin-5-yl]-2-oxoacetamide] |  |
| 30 | NC(=O)C(=O)N1CCc2c(c(-c3ccc(Cl)c(C#Cc4ccc(Cl)c(CN[C@@H](CO)c5ccccc5)c4)c3)nn2CCCN2CCSCC2)C1 [Example 563, 2-[3-(4-Chloro-3-{[4-chloro-3-({[(1R)-2-hydroxy-1-phenylethyl]amino}methyl)phenyl]ethynyl}phenyl)-1-(3-thiomorpholin-4-ylpropyl)-1,4,6,7-tetrahydro-5H-pyrazolo[4,3-c]pyridin-5-yl]-2-oxoacetamide] |  |
| 30 | NC(=O)C(=O)N1CCc2c(c(-c3ccc(Cl)c(C#Cc4ccc(Cl)c(C(=O)N[C@@H](CO)c5ccccc5)c4)c3)nn2CCCN2CCSCC2)C1 [Example 564, 5-[(5-{5-[Amino(oxo)acetyl]-1-(3-thiomorpholin-4-ylpropyl)-4,5,6,7-tetrahydro-1H-pyrazolo[4,3-c]pyridin-3-yl}-2-chlorophenyl)ethynyl]-2-chloro-N-[(1R)-2-hydroxy-1-phenylethyl]benzamide] |  |
